Results: patent US10047084B2, “Imidazolone derivatives, pharmaceutical compositions and uses thereof” (BEIJING FORELANDPHARMA CO. LTD., priority 2013, dated 2018)

Legend:
mTOR kinase = mTOR kinase (Homo sapiens (Human), UniProt P42345); experiment: mTOR kinase activity assay (TR-FRET, GFP-4EBP1 substrate); assay type: biochemical; details: read-out: Enzyme (mTOR) IC50
Method: 1. mTOR Kinase Activity Assay: The inhibition of the mTOR protein kinase activity by the compounds was determined by the enzymatic activity assay in vitro. The detection kit supplied by Invitrogen was used to detect the inhibition of the activity of the mTOR […]. The principle of the assay was as follows: mTOR kinase, fluorescein-labeled substrate and ATP were mixed, and after the reaction, EDTA and terbium-labeled first antibody were added. During the chemical reaction process of the mTOR kinase, the antibody recognized the phosphorylated and fluorescein-labeled substrate, and then the “time-resolved fluorescence resonance energy transfer” (TR-FRET) effect was enhanced. TR-FRET effect was calculated as the ratio of signals from the acceptor fluorescein to signals from the donor terbium. The amount of the antibody bound to the tracer was directly proportional to the amount of the phosphorylated substrate after the reaction. In this way, the kinase activity can be detected. In this assay, the substrate of the mTOR kinase was green fluorescent protein-coupled 4E binding protein 1 (GFP-4EBP1).
1.1 Materials and Instruments:
4-Hydroxyethylpiperazine ethanesulfonic acid (HEPES, Sigma, Cat# SH3375), ethylene glycol-bis-(2-aminoethylether)-tetraacetic acid (EGTA, Sigma, Cat# E3889), manganese chloride (MnCl2, Sigma, Cat# M1787), Tween-20 (Tween-20, Amresco), 1,4-dithiothreitol (DTT, Merck, CB233155),

PC-3 = experiment: CTG cell survival assay, PC-3; assay type: cell-based; details: Homo sapiens, PC-3 cells
In short: (§1)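 Cells were exposed to compounds in a 3-fold dilution series, with a top final concentration of 10 uM in 0.1% DMSO. Viable cells were quantified by CellTiter-Glo ATP luminescence.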

MV-4-11 = experiment: CTG cell survival assay, MV-4-11; assay type: cell-based; details: Homo sapiens, MV4-11, MV-4-11 cells
In short: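 Cells grown in RPMI 1640 with 10% FBS were plated and cultured 24 h at 37 °C, 5% CO2, then treated with compound diluted from 10 mM DMSO stocks. Viable cells were quantified as ATP by CellTiter-Glo luminescence.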

SK-BR3/BT474 = experiment: CTG cell survival assay, SK-BR3/BT474; assay type: cell-based; details: SK-BR3/BT474 cells
In short: as §1

[1] = Solubility test in common aqueous vehicles; assay type: physicochemical; details: 25° C., pH = 3
[2] = biological target: PI3K-alpha (PIK3CA/PIK3R1) (Homo sapiens (Human), UniProt P42336); experiment: PI3K-alpha enzyme activity assay (ADP Glo); assay type: biochemical; details: read-out: Activity of inhibiting PI3K enzyme IC50
Sequence of PI3K-alpha (PIK3CA/PIK3R1) (P42336 whole entry, looked up): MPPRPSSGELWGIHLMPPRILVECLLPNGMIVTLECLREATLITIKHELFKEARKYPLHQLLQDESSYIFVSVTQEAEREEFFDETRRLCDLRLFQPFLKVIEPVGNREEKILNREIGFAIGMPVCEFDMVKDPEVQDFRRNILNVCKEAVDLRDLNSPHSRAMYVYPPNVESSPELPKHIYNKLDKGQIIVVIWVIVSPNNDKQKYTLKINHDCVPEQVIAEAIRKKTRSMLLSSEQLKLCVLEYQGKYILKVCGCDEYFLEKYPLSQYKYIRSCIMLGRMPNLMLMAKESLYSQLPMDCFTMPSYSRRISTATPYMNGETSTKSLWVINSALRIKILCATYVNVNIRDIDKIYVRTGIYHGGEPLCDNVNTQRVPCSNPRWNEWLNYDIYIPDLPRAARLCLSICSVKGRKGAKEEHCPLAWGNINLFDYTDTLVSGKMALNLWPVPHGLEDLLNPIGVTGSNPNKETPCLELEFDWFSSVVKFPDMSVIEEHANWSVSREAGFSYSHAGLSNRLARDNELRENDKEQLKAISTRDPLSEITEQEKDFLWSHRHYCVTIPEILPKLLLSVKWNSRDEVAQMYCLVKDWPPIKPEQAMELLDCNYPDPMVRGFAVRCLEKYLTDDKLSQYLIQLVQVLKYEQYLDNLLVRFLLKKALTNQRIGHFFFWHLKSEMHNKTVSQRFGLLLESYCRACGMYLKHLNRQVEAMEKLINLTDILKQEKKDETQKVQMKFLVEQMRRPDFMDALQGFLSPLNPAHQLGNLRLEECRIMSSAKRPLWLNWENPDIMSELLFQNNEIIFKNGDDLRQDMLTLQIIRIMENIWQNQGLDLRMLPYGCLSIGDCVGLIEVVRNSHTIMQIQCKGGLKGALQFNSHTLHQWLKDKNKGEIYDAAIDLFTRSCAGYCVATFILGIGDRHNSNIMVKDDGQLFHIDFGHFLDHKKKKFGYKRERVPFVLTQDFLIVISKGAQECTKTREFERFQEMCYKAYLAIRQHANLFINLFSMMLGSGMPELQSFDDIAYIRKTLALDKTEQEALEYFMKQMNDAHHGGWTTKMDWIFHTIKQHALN
Sequence of PI3K-alpha (PIK3CA/PIK3R1) (P27986 whole entry partner, looked up): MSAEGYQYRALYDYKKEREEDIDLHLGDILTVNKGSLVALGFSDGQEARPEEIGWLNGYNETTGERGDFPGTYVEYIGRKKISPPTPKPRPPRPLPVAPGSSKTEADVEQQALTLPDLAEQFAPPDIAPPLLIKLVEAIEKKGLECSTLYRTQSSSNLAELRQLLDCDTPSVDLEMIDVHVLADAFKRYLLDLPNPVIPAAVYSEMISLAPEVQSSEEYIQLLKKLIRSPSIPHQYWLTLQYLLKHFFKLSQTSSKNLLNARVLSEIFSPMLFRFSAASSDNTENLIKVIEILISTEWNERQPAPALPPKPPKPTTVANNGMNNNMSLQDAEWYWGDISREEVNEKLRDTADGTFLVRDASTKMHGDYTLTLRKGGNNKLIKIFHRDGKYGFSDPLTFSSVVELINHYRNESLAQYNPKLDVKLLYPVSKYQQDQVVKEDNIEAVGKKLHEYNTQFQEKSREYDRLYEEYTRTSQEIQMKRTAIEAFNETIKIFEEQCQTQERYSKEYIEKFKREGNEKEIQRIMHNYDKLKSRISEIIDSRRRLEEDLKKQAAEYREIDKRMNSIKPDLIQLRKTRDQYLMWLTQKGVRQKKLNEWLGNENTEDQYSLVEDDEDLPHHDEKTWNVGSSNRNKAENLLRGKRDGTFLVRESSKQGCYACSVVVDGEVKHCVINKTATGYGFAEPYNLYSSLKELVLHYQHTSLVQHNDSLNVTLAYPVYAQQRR
Excerpt: 3. PI3K-alpha Enzyme Activity Assay: PI3K alpha-ADP Glo Assay was employed. In the determination of PI3K enzyme activity, the detection kit supplied by Promega (Promega, Cat #: V9101) was used to detect the inhibition effect of the compounds on the activity of PI3K enzyme. The adenosine diphosphate produced during the whole enzymic reactions was quantified. The resulting values were used to calculate the activity of PI3K (Table 1).
3.1 Detection reagents: PIK3CA/PIK3R1 purchased from Invitrogen (Cat #: PV4788): The active kinase was diluted with kinase diluent III; and mixed with bovine serum albumin (BSA) in a ratio of 1:4 (5×dilution). The final BSA concentration was 50 ng/ml; and the compositions of Kinase Detection Solution I were: 25 mM MOPS, pH7.2, 12.5 mM β-glycerophosphate, 25 mM magnesium chloride, 5 mM EGTA, and 2 mM EDTA. Before use, 0.25 mM DTT was added to Kinase Detection Solution I; 250 μM adenosine triphosphate (ATP) Detection solution: 0.55 mg of ATP was dissolved in 4 ml of Kinase Detection Solution I, subdivided in 200 μl/vial and stored at −20° C. Substrate: Phosphatidylinositol (4,5) bis-phosphate; this substrate was diluted with Kinase Detection Solution I to a concentration of 125 μM. Final concentrations were: 10 μM PIP2, 10 μM ATP, 1% DMSO, and 0.0005-10 μM compounds.
a) Experimental Procedure: • 3.2.1 50 μL of the compounds diluted with dimethyl sulfoxide (DMSO) at a concentration of 100 μM were added to the 384-well dilution plate. The compounds were diluted with dimethyl sulfo de (DMSO) in a ratio of 1:3 (10 dilution concentrations plus 1 zero concentration). • 3.2.2 5 μL of the diluted compounds were transferred to the corresponding 384-well black Proxi plate (containing 47.5 μL of detection solution/well), and shaked for several seconds. • 3.2.3 2 μL of 2.5×PI3K working solution was added to 384-well black Proxi plate. • 3.2.4 2 μL of the diluted compounds were added to the detection plate (3 wells for each concentration). • 3.2.5 The plate was incubated at room temperature for 2 h. • 3.2.6 5 μL of ADP Glo Reagent was added. • 3.2.7 The plate was incubated at room temperature for 40 minutes. • 3.2.8 10 μL of the kinase detection reagent was added. • 3.2.9 The plate was incubated at room temperature for 40 minutes. • 3.2.10 The activity was detected by using Envision Reader.
The inhibition of the mTOR […] activity by the compounds ranges in 0.5 to several hundreds nanomoles, see Table 1.

Sequence of mTOR kinase (P42345 1360-2549): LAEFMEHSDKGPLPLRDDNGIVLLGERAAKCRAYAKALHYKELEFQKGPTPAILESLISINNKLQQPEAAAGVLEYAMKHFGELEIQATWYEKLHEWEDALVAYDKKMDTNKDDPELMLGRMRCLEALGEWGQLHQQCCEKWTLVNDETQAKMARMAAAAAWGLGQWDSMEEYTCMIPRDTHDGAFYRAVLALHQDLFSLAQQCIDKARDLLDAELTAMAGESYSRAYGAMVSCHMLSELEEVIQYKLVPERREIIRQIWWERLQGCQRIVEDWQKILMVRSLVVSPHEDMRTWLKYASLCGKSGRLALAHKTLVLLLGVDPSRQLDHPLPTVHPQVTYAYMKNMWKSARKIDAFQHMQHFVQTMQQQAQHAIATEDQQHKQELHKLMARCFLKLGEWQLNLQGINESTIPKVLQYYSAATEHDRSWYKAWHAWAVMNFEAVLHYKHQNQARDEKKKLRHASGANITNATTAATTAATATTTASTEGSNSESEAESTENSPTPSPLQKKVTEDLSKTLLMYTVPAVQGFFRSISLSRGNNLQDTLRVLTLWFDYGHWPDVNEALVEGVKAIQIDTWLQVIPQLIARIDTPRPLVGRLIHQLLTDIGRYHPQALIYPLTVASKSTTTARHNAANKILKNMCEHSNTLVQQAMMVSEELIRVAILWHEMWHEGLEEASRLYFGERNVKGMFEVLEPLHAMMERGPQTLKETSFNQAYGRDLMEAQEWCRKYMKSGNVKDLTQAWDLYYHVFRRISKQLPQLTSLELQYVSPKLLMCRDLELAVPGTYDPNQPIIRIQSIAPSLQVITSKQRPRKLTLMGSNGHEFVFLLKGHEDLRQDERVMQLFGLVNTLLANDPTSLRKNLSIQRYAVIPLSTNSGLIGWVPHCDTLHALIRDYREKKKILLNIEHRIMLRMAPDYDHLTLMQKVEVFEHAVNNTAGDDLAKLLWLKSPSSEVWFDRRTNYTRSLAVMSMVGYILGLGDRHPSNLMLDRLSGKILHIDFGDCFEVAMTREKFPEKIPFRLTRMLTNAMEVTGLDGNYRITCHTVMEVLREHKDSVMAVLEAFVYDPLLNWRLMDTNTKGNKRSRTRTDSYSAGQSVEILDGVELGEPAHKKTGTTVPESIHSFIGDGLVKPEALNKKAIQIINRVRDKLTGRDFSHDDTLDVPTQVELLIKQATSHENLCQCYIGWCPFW

Structure (SMILES) | IC50 (mTOR kinase) [nM] | EC50 (PC-3) [nM] | EC50 (MV-4-11) [nM] | EC50 (SK-BR3/BT474) [nM] | solubility ([1]; aqueous buffer, water) [µg/mL] | solubility ([1]; aqueous with cosolvent or surfactant or cyclodextrin, 30% hydroxypropyl-β-cyclodextrin) [µg/mL] | IC50 [2] [nM]
Cn1cc(-c2ccc(-c3ccc4ncc5c(c4c3)n([C@H]3CC[C@H](O)CC3)c(=O)n5C)cn2)cn1 [Example 17, 1-((1r,4r)-4-hydroxycyclohexyl)-3-methyl-8-(6-(1-methyl-1H-pyrazol-4-yl)pyridin-3-yl)-1H-imidazo[4,5-c]quinolin-2(3H)-one] | < 10 | < 100 | < 500 | < 200 |  |  | 
COc1ncc(-c2ccc3ncc4c(c3c2)n([C@H]2CC[C@H](O)CC2)c(=O)n4C)cc1C [Example 24, 1-((1r,4r)-4-hydroxycyclohexyl)-8-(6-methoxyl-5-methylpyridin-3-yl)-3-methyl-1H-imidazo[4,5-c]quinolin-2(3H)-one] | 10 to 100 | < 200 | < 500 | < 500 |  |  | 
C[C@@H](O)C(=O)N1CCCC(n2c(=O)n(C)c3cnc4ccc(-c5ccc(-c6cnn(C)c6)nc5)cc4c32)C1 (stereo partly drawn) [Example 5, 1-(1-((R)-2-hydroxypropionyl)piperidin-3-yl)-3-methyl-8-(6-(1-methyl-1H-pyrazol-4-yl)pyridin-3-yl)-1H-imidazo[4,5-c]quinolin-2(3H)-one] | < 10 | < 500 | < 500 | < 200 |  |  | 
Cn1cc(-c2ccc(-c3ccc4ncc5c(c4c3)n(C3CCCC(O)C3)c(=O)n5C)cn2)cn1 (stereo not shown) [Example 32, 1-(3-hydroxycyclohexyl)-3-methyl-8-(6-(1-methyl-1H-pyrazol-4-yl)pyridin-3-yl)-1H-imidazo[4,5-c]quinolin-2(3H)-one] | < 10 | < 50 | < 200 | < 100 |  |  | 
Cn1c(=O)n([C@H]2CC[C@H](O)CC2)c2c3cc(-c4cnn(-c5ccccc5)c4)ccc3ncc21 [Example 23, 1-((1r,4r)-4-hydroxycyclohexyl)-3-methyl-8-(1-phenyl-1H-pyrazol-4-yl)-1H-imidazo[4,5-c]quinolin-2(3H)-one] | 10 to 100 | < 200 | < 500 | < 500 |  |  | 
C[C@H](O)C(=O)N1CCCC(n2c(=O)n(C)c3cnc4ccc(-c5ccc(-c6cnn(C)c6)nc5)cc4c32)C1 (stereo partly drawn) [Example 4, 1-(1-((S)-2-hydroxypropionyl)piperidin-3-yl)-3-methyl-8-(6-(1-methyl-1H-pyrazol-4-yl)pyridin-3-yl)-1H-imidazo[4,5-c]quinolin-2(3H)-one] | 10 to 100 | < 200 | < 500 | < 500 |  |  | 
Cc1ccc(-c2ccc3ncc4c(c3c2)n([C@H]2CC[C@@H](O)CC2)c(=O)n4C)cn1 [Example 22, 1-((1s,4s)-4-hydroxycyclohexyl)-3-methyl-8-(6-methylpyridin-3-yl)-1H-imidazo[4,5-c]quinolin-2(3H)-one] | 10 to 100 | < 200 | < 200 | < 200 |  |  | 
CCS(=O)(=O)N1CCC[C@@H](n2c(=O)n(C)c3cnc4ccc(-c5ccc(-c6cnn(C)c6)nc5)cc4c32)C1 [Example 52, (R)-1-(1-(ethylsulfonyl)piperidin-3-yl)-3-methyl-8-(6-(1-methyl-1H-pyrazol-4-yl)pyridin-3-yl)-1H-imidazo[4,5-c]quinolin-2(3H)-one] |  | < 30 | < 30 | 50 | > 1000 |  | 
Cn1c(=O)n([C@H]2CC[C@@H](O)CC2)c2c3cc(-c4cnn(-c5ccccc5)c4)ccc3ncc21 [Example 21, 1-((1s,4s)-4-hydroxycyclohexyl)-3-methyl-8-(1-phenyl-1H-pyrazol-4-yl)-1H-imidazo[4,5-c]quinolin-2(3H)-one] | 10 to 100 | < 500 | < 200 | < 500 |  |  | 
Cn1c(=O)n([C@H]2CC[C@@H](O)CC2)c2c3cc(-c4ccc(-c5ccccc5)nc4)ccc3ncc21 [Example 19, 1-((1s,4s)-4-hydroxycyclohexyl)-3-methyl-8-(6-phenylpyridin-3-yl)-1H-imidazo[4,5-c]quinolin-2(3H)-one] | < 10 | < 50 | < 200 | < 100 |  | > 1000 | 
COc1ncc(-c2ccc3ncc4c(c3c2)n([C@H]2CC[C@@H](O)CC2)c(=O)n4C)cc1C [Example 20, 1-((1s,4s)-4-hydroxycyclohexyl)-8-(6-methoxyl-5-methylpyridin-3-yl)-3-methyl-1H-imidazo[4,5-c]quinolin-2(3H)-one] | 10 to 100 | < 200 | < 200 | < 500 |  |  | 
Cn1cc(-c2ccc(-c3ccc4ncc5c(c4c3)n(C3CCCN(C(=O)CO)C3)c(=O)n5C)cn2)cn1 (stereo not shown) [Example 1, 1-(1-(2-hydroxyacetyl)piperidin-3-yl)-3-methyl-8-(6-(1-methyl-1H-pyrazol-4-yl)pyridin-3-yl)-1H-imidazo[4,5-c]quinolin-2(3H)-one] | 10 to 100 | < 200 | < 1000 | < 500 | > 1000 |  | 
Cn1cc(-c2ccc(-c3ccc4ncc5c(c4c3)n(C3CCN(S(C)(=O)=O)C3)c(=O)n5C)cn2)cn1 (stereo not shown) [Example 6, 3-methyl-8-(6-(1-methyl-1H-pyrazol-4-yl)pyridin-3-yl)-1-(1-(methanesulfonyl)pyrrolidin-3-yl)-1H-imidazo[4,5-c]quinolin-2 (3H)-one] | < 10 | < 50 | < 200 | < 50 |  |  | 
Cn1cc(-c2ccc(-c3ccc4ncc5c(c4c3)n([C@@H]3CCN(S(C)(=O)=O)C3)c(=O)n5C)cn2)cn1 [Example 27, (R)-3-methyl-8-(6-(1-methyl-1H-pyrazol-4-yl)pyridin-3-yl)-1-(1-(methanesulfonyl)pyrrolidin-3-yl)-1H-imidazo[4,5-c]quinolin-2(3H)-one] | 100 to 1000 |  |  | < 1000 |  |  | < 10
CCN1CCC(n2c(=O)n(C)c3cnc4ccc(-c5ccc(-c6cnn(C)c6)nc5)cc4c32)C1 (stereo not shown) [Example 10, 1-(1-ethylpyrrolidin-3-yl)-3-methyl-8-(6-(1-methyl-1H-pyrazol-4-yl)pyridin-3-yl)-1H-imidazo[4,5-c]quinolin-2(3H)-one] | 100 to 1000 | < 200 | < 1000 | < 1000 |  |  | 
